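Test compounds were applied to cells in 96-well plates for 48 hours at 5 doses. At the GI50, growth is halved.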 Active and inactive are the calls of the source. Cut-off read from the data, not from the text of the source: active = GI50 up to about 1.1 µM and inactive = higher.

Among the test systems are LOX IMVI; OVCAR-3; SW-620; DMS-114; OVCAR-5; HCC 2998; UO-31; K562; DLD-1; A549; RPMI-8226; NCI-H460; HOP-18; MOLT-4; TK-10; RXF 393; SNB-78; HOP-62; SR.
Holding throughout (assay): NCI-60 cell line screen, 48 h

Take `CN(C)CC1(C)CC/C(=C\c2ccc(Cl)cc2)C1=O` (centres undefined): the GI50 is 31.3 µM (inactive) with LOX IMVI; 34.7 µM (inactive) with OVCAR-3; 16.5 µM (inactive) in the test with SW-620; 22.6 µM (inactive) in the test with DMS-114; > 100 µM (inactive) in the test with OVCAR-5; 40.5 µM (inactive) with HCC 2998. For the same compound, the GI50 in the test with UO-31 was 45.8 µM (inactive); in the test with K562, 40.6 µM (inactive); with DLD-1, 29.2 µM (inactive); in the test on A549, 66.8 µM (inactive); in the test with RPMI-8226 it was 19.1 µM (inactive); with NCI-H460 it was 24.4 µM (inactive). Moreover, the GI50 with HOP-18 is 46 µM (inactive); in the test with MOLT-4, 20.5 µM (inactive); in the test with TK-10 it was 88.5 µM (inactive); with RXF 393 it was 22.4 µM (inactive); in the test on SNB-78, 40.8 µM (inactive); in the test with HOP-62 it was > 100 µM (inactive).
Take `Cc1nc(-c2cccnc2)sc1C(=O)/C=C/c1cccc([N+](=O)[O-])c1`: the GI50 in the test on LOX IMVI, in the test on OVCAR-3, in the test on SW-620, in the test with DMS-114, in the test on OVCAR-5 and in the test on HCC 2998 was > 100 µM (inactive) throughout. Also, the GI50 in the test on UO-31, in the test with K562, in the test on DLD-1, in the test with A549, in the test with RPMI-8226 and with NCI-H460 was > 100 µM (inactive) each time. Further, the GI50 in the test on HOP-18, in the test on MOLT-4, with TK-10, with RXF 393 and with HOP-62 was > 100 µM (inactive) throughout.
Turning to `O=C1OC(=O)C2C3C=CC(C12)C1C2C=CC2C31` (centres undefined), the GI50 in the test with LOX IMVI, in the test with SW-620, with OVCAR-5, in the test with HCC 2998, in the test on K562 and in the test with A549 was > 100 µM (inactive) in each case. For the same compound, the GI50 in the test on NCI-H460, with HOP-18, with MOLT-4, in the test with SR, with TK-10 and in the test with RXF 393 was > 100 µM (inactive) in each case. In addition, the GI50 in the test with HOP-62 is > 100 µM (inactive).
For the compound `CC(=O)NC1=C(NC(C)(C)C)C(=O)c2ccccc2C1=O`, the GI50 is 16.7 µM (inactive) in the test with LOX IMVI; 15.6 µM (inactive) in the test on OVCAR-3; 14.1 µM (inactive) in the test on SW-620; 20.6 µM (inactive) in the test on DMS-114; 48.1 µM (inactive) with OVCAR-5; > 100 µM (inactive) with HCC 2998. Besides, the GI50 in the test on UO-31 was 18.2 µM (inactive); in the test on K562 it was 7.19 µM (inactive); in the test on DLD-1, 15.9 µM (inactive); with A549 it was 48.1 µM (inactive); in the test on RPMI-8226, 11.7 µM (inactive); with NCI-H460, 19.2 µM (inactive). Also, the GI50 in the test with HOP-18 is 14.8 µM (inactive); in the test with MOLT-4, 6.43 µM (inactive); in the test with TK-10 it was 19.3 µM (inactive); in the test with RXF 393 it was 17.9 µM (inactive); in the test on SNB-78, 31 µM (inactive); in the test with HOP-62, 49.4 µM (inactive).
In the case of `C=CCCC(OCOCCOC)c1cc(C)c(O[Si](C)(C)C(C)(C)C)c(C)c1` (centres undefined), the GI50 in the test on LOX IMVI is 13 µM (inactive); with OVCAR-3, 13.6 µM (inactive); in the test with SW-620 it was 16 µM (inactive); with DMS-114, 11.7 µM (inactive); in the test with OVCAR-5, 17 µM (inactive); with HCC 2998 it was 14 µM (inactive). Further, the GI50 in the test on UO-31 was 11.7 µM (inactive); in the test on K562, 8.05 µM (inactive); in the test with A549, 16.4 µM (inactive); with RPMI-8226 it was 4.81 µM (inactive); with NCI-H460 it was 13.9 µM (inactive); in the test on HOP-18 it was 28.6 µM (inactive). Moreover, the GI50 in the test with MOLT-4 is 4.4 µM (inactive); in the test with TK-10 it was 22 µM (inactive); in the test with RXF 393, 13.8 µM (inactive); in the test with SNB-78 it was > 100 µM (inactive); with HOP-62, 18.7 µM (inactive).
Turning to `O=c1[nH]cnc2[nH]nnc12`, the GI50 in the test on LOX IMVI is 0.668 µM (active); in the test on OVCAR-3, 14 µM (inactive); in the test on SW-620, 1.49 µM (inactive); in the test on DMS-114, 8.02 µM (inactive); in the test with OVCAR-5, 29.8 µM (inactive); with HCC 2998, 18.1 µM (inactive). Also, the GI50 was 2.73 µM (inactive) in the test on UO-31; 0.593 µM (active) with K562; 84.9 µM (inactive) in the test on A549; 0.685 µM (active) in the test with RPMI-8226; 8.65 µM (inactive) in the test with NCI-H460; 2.33 µM (inactive) in the test with HOP-18. In addition, the GI50 in the test on MOLT-4 was 0.726 µM (active); in the test with SR it was 0.92 µM (active); in the test on TK-10 it was 7.52 µM (inactive); in the test with RXF 393, 2.62 µM (inactive); with SNB-78, 6.3 µM (inactive); in the test on HOP-62, 1.99 µM (inactive).
With `COc1cc2ccc1-c1cc(ccc1O)CC1c3cc4c(cc3CCN1C)Oc1c(OC)cc3c(c1O4)C(C2)N(C)CC3` (centres undefined), the GI50 with LOX IMVI was 1.99 µM (inactive); with OVCAR-3, 1.95 µM (inactive); with SW-620 it was 1.84 µM (inactive); with DMS-114, 2 µM (inactive); with OVCAR-5, 3.4 µM (inactive); in the test with HCC 2998, 1.63 µM (inactive). Further, the GI50 in the test on UO-31 is 1.8 µM (inactive); in the test with K562, 1.44 µM (inactive); in the test on DLD-1, 2.28 µM (inactive); in the test on A549, 1.84 µM (inactive); in the test with RPMI-8226 it was 1.91 µM (inactive); in the test on NCI-H460, 1.75 µM (inactive). Further, the GI50 in the test on MOLT-4 was 1.83 µM (inactive); with SR, 1.85 µM (inactive); with TK-10 it was 12.2 µM (inactive); in the test on RXF 393 it was 1.67 µM (inactive); in the test on SNB-78, 2.1 µM (inactive); in the test with HOP-62, 1.93 µM (inactive).
For the compound `Nc1n[n+](-c2ccccc2)no1`, the GI50 is 42 µM (inactive) in the test with LOX IMVI; 47.4 µM (inactive) in the test on OVCAR-3; 45.8 µM (inactive) with SW-620; 18.3 µM (inactive) in the test on DMS-114; 40.7 µM (inactive) with OVCAR-5; 17.4 µM (inactive) in the test with HCC 2998. Also, the GI50 in the test with UO-31 was 83.4 µM (inactive); in the test on K562, 4.85 µM (inactive); in the test on DLD-1 it was 5.7 µM (inactive); in the test with A549, 39.6 µM (inactive); in the test with RPMI-8226, 26.6 µM (inactive); in the test with NCI-H460, 27.6 µM (inactive). The GI50 in the test on MOLT-4 was 13.3 µM (inactive); in the test with TK-10, > 100 µM (inactive); in the test with SNB-78, > 100 µM (inactive); in the test with HOP-62, 31.6 µM (inactive).
With `CCCN(CCCCC(NC(C)=O)C(=O)NCc1ccccc1)C(=O)NC` (centres undefined), the GI50 in the test on LOX IMVI, with OVCAR-3, in the test with SW-620, in the test on DMS-114, with OVCAR-5 and with HCC 2998 was > 100 µM (inactive) throughout. Also, the GI50 with UO-31, in the test with K562, in the test with DLD-1, in the test on A549, in the test with RPMI-8226 and with NCI-H460 was > 100 µM (inactive) in each case. The GI50 in the test on MOLT-4, in the test on TK-10, in the test with RXF 393, in the test on SNB-78 and in the test on HOP-62 was > 100 µM (inactive) throughout.
For the compound `NC1=NS(=O)(=O)Nc2nc(-c3ccc([N+](=O)[O-])o3)[nH]c21`, the GI50 is 15.9 µM (inactive) with LOX IMVI; 24.7 µM (inactive) with OVCAR-3; 13.8 µM (inactive) in the test on SW-620; 14.2 µM (inactive) in the test on DMS-114; 19.4 µM (inactive) in the test with OVCAR-5; 16.8 µM (inactive) with HCC 2998. Besides, the GI50 in the test on UO-31 is 16.2 µM (inactive); with K562, 5.38 µM (inactive); in the test on DLD-1, 15.8 µM (inactive); with A549, > 100 µM (inactive); in the test on RPMI-8226 it was 10.7 µM (inactive); in the test with NCI-H460, 20.2 µM (inactive). Moreover, the GI50 in the test on HOP-18 was 16.3 µM (inactive); with MOLT-4, 9.62 µM (inactive); in the test with SR, 4.73 µM (inactive); in the test with TK-10 it was 19 µM (inactive); with RXF 393, 12.9 µM (inactive); in the test with HOP-62 it was 18.5 µM (inactive).
Turning to `C1=CC=C2NCCSCC/N=C3/C=CC=CC=C3NCCSCC/N=C\2C=C1`, the GI50 in the test on LOX IMVI, in the test with OVCAR-3, in the test on SW-620, in the test with DMS-114, with OVCAR-5 and in the test on HCC 2998 was > 100 µM (inactive) in each case. Further, the GI50 in the test on UO-31, with K562, in the test on DLD-1, in the test with A549, in the test on RPMI-8226 and with NCI-H460 was > 100 µM (inactive) throughout. Also, the GI50 in the test with HOP-18, with MOLT-4, with TK-10, in the test on SNB-78 and with HOP-62 was > 100 µM (inactive) each time.
Consider `CC(=O)/C=C\C(=O)NNS(=O)(=O)c1ccc(C)cc1`, for which the GI50 in the test on LOX IMVI, with OVCAR-3, in the test with SW-620, in the test on OVCAR-5, in the test on HCC 2998 and in the test with UO-31 was > 100 µM (inactive) each time. For the same compound, the GI50 with K562, in the test on DLD-1, with A549, in the test on RPMI-8226, in the test on NCI-H460 and with MOLT-4 was > 100 µM (inactive) each time. Besides, the GI50 with SR, with TK-10, in the test with RXF 393, in the test with SNB-78 and with HOP-62 was > 100 µM (inactive) each time.

The values above are taken from ChEMBL document CHEMBL1201862, “PubChem BioAssay data set” (2004).
